# Source: patent US20080145313A1, “Compositions and Methods for the Treatment and Prevention of Neoplastic Disorders” (Genesis Research & Development Corporation Limited, priority 2006, published 2008)
# What was measured:
# [1] = tested on: target transcript mRNA in A549 cells; assay: Level of mRNA of target transcript in A549 cells by quantitative RT-PCR (Tables 12 and 13); type: cell-based, human; conditions: 24 h post-transfection; for mRNA knockdown of transporter gene target transcript, 0.1 nM: 0.1 nM siRNA; for mRNA knockdown of transporter gene target transcript, 1 nM: 1 nM siRNA; for mRNA knockdown of transporter gene target transcript, 10 nM: 10 nM siRNA
# Summary of the method: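 Target mRNA was measured by SYBR Green quantitative RT-PCR using random-primed cDNA, normalised to HPRT and Lamin. Samples came from A549 cells 24 h post-transfection with 0.1, 1.0 or 10 nM siRNA.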
# [2] = tested on: A549 cells; assay: Growth inhibition of siRNA-transfected A549 cells, SYBR Green I DNA content; type: cell-based, human; conditions: A549 cells, 10 nM siRNA, DNA content 96 hours after transfection, transporter gene targets
# Summary of the method: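 Growth read-out: cellular DNA quantified with SYBR Green I (485/535 nm) 96 h after transfection, cells frozen, thawed and lysed in PBS/1% Triton X-100, pH 7. Cells (A549, 5×10^3 cells/cm^2) received 10 nM siRNA by RNAiMAX; non-specific siRNA served as control; triplicate wells averaged.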
Substance,"mRNA knockdown of transporter gene target transcript, 0.1 nM [1]","mRNA knockdown of transporter gene target transcript, 1 nM [1]",Growth Inhibition in A549 cells by 10 nM siRNA [2],"mRNA knockdown of transporter gene target transcript, 10 nM [1]"
SEQ ID NO: 4953: siRNA targeting ATP6V1B2 (chain 1 ATGATATCAAGGAAGTCTTCGGCCA; chain 2 AUGAUAUCAAGGAAGUCUUCGGCCA; chemistry not given here; one strand in two spellings),− (<50% mRNA knockdown),+ (50-70% mRNA knockdown),++ (inhibits by at least 75%),
SEQ ID NO: 4964: siRNA targeting ATP7A (chain 1 TAACCATCATATATATCATCAGCCC; chain 2 UAACCAUCAUAUAUAUCAUCAGCCC; chemistry not given here; one strand in two spellings),− (<50% mRNA knockdown),− (<50% mRNA knockdown),− (no growth inhibition),
SEQ ID NO: 4923: siRNA targeting SLC16A1 (MCT1) (chain 1 AAATAATTAGGACGACGCCACATGC; chain 2 AAAUAAUUAGGACGACGCCACAUGC; chemistry not given here; one strand in two spellings),+ (50-70% mRNA knockdown),++ (70-90% mRNA knockdown),− (no growth inhibition),+++ (>90% mRNA knockdown)
"SEQ ID NO: 4918: siRNA targeting SLC23A2 (SVCT2) (chain 1 AATCCAAGCACAAAGAGGTTCCGGG; chain 2 AAUCCAAGCACAAAGAGGUUCCGGG; Antisense strand given in DNA and RNA notation, chemistry not given here; one strand in two spellings)",++ (70-90% mRNA knockdown),++ (70-90% mRNA knockdown),− (no growth inhibition),
SEQ ID NO: 4926: siRNA targeting SLC25A1 (CIC) (chain 1 AGTCCCACGTGTTCCGGTATTTGTG; chain 2 AGUCCCACGUGUUCCGGUAUUUGUG; chemistry not given here; one strand in two spellings),++ (70-90% mRNA knockdown),++ (70-90% mRNA knockdown),++ (inhibits by at least 75%),
SEQ ID NO: 4967: siRNA targeting ATP7B (chain 1 AATTCTGGTTAGCAGAAGATAAAGG; chain 2 AAUUCUGGUUAGCAGAAGAUAAAGG; chemistry not given here; one strand in two spellings),− (<50% mRNA knockdown),− (<50% mRNA knockdown),+ (inhibits by at least 50%),
SEQ ID NO: 4952: siRNA targeting ATP6V1B2 (chain 1 TACAACAGGACCTCTGTCAATGGGT; chain 2 UACAACAGGACCUCUGUCAAUGGGU; chemistry not given here; one strand in two spellings),− (<50% mRNA knockdown),+ (50-70% mRNA knockdown),− (no growth inhibition),
"SEQ ID NO: 4916: siRNA targeting SLC23A2 (SVCT2) (chain 1 AATACTAGGAATATTGTCAGCATGG; chain 2 AAUACUAGGAAUAUUGUCAGCAUGG; Antisense strand given in DNA and RNA notation, chemistry not given here; one strand in two spellings)",++ (70-90% mRNA knockdown),++ (70-90% mRNA knockdown),− (no growth inhibition),
"SEQ ID NO: 4913: siRNA targeting SLC19A2 (ThTr1) (chain 1 AATACAAGGAGACGGTCTGGCTTGG; chain 2 AAUACAAGGAGACGGUCUGGCUUGG; Antisense strand given in DNA and RNA notation, chemistry not given here; one strand in two spellings)",++ (70-90% mRNA knockdown),++ (70-90% mRNA knockdown),− (no growth inhibition),
"SEQ ID NO: 4891: siRNA targeting SLC1A5 (ASCT2) (chain 1 TCTACATTGAGGACGGTACAGGACC; chain 2 UCUACAUUGAGGACGGUACAGGACC; Antisense strand given in DNA and RNA notation, chemistry not given here; one strand in two spellings)",++ (70-90% mRNA knockdown),++ (70-90% mRNA knockdown),− (no growth inhibition),
SEQ ID NO: 4919: siRNA targeting SLC9A1 (NHE1) (chain 1 AAACTCCTCAAAGAGGTGATACAGG; chain 2 AAACUCCUCAAAGAGGUGAUACAGG; chemistry not given here; one strand in two spellings),++ (70-90% mRNA knockdown),++ (70-90% mRNA knockdown),+ (inhibits by at least 50%),
SEQ ID NO: 4978: siRNA targeting ABCB1 (MDR1) (chain 1 TTGGTACTAAGCTTTCTGTCTTGGG; chain 2 UUGGUACUAAGCUUUCUGUCUUGGG; chemistry not given here; one strand in two spellings),− (<50% mRNA knockdown),− (<50% mRNA knockdown),− (no growth inhibition),
SEQ ID NO: 4938: siRNA targeting ATP2B1 (PMCA1) (chain 1 AAATCTTGTCTATCCTCTCTTGCTC; chain 2 AAAUCUUGUCUAUCCUCUCUUGCUC; chemistry not given here; one strand in two spellings),+ (50-70% mRNA knockdown),++ (70-90% mRNA knockdown),− (no growth inhibition),
SEQ ID NO: 4963: siRNA targeting ATP6V1F (chain 1 TAGCGCAGGTCTTCGGCAGTGAACA; chain 2 UAGCGCAGGUCUUCGGCAGUGAACA; chemistry not given here; one strand in two spellings),++ (70-90% mRNA knockdown),++ (70-90% mRNA knockdown),− (no growth inhibition),
SEQ ID NO: 4937: siRNA targeting ATP2B1 (PMCA1) (chain 1 ATTTATGTAAGCTTGAACGACTGTC; chain 2 AUUUAUGUAAGCUUGAACGACUGUC; chemistry not given here; one strand in two spellings),++ (70-90% mRNA knockdown),++ (70-90% mRNA knockdown),− (no growth inhibition),
"SEQ ID NO: 4897: siRNA targeting SLC2A5 (GLUT5) (chain 1 TTACAGACCACAGCAACGTCAAGGG; chain 2 UUACAGACCACAGCAACGUCAAGGG; Antisense strand given in DNA and RNA notation, chemistry not given here; one strand in two spellings)",+++ (>90% mRNA knockdown),+++ (>90% mRNA knockdown),++ (inhibits by at least 75%),
"SEQ ID NO: 4899: siRNA targeting SLC2A12 (GLUT12) (chain 1 TTAGCAAGGATGCTGAGGTCGTCTC; chain 2 UUAGCAAGGAUGCUGAGGUCGUCUC; Antisense strand given in DNA and RNA notation, chemistry not given here; one strand in two spellings)",++ (70-90% mRNA knockdown),++ (70-90% mRNA knockdown),− (no growth inhibition),
SEQ ID NO: 4933: siRNA targeting SLC29A1 (ENT1) (chain 1 TGGAGACTGAAACTCCAGATTCCTC; chain 2 UGGAGACUGAAACUCCAGAUUCCUC; chemistry not given here; one strand in two spellings),− (<50% mRNA knockdown),++ (70-90% mRNA knockdown),+ (inhibits by at least 50%),++ (70-90% mRNA knockdown)
"SEQ ID NO: 4912: siRNA targeting SLC5A6 (SMVT1) (chain 1 ACCAGTGTCTGGAACACATCTGTCC; chain 2 ACCAGUGUCUGGAACACAUCUGUCC; Antisense strand given in DNA and RNA notation, chemistry not given here; one strand in two spellings)",+ (50-70% mRNA knockdown),+ (50-70% mRNA knockdown),− (no growth inhibition),
